In publication doi:10.1101/2022.07.05.498881v1 (biorxiv, 2022):
Like-named read-outs stand apart in the source and are kept apart here.

How the values were obtained:
[1] = molecular target: T1, SARS-CoV-1 MPro (SARS-CoV-1 major protease) (Severe acute respiratory syndrome-related coronavirus, UniProt P0C6X7); assay: biochemical
T1 construct: gene rep

[2] = molecular target: T2, MERS MPro (MERS-CoV MPro, MERS major protease) (Betacoronavirus England 1, UniProt K9N7C7); assay: biochemical
T2 construct: gene rep
T2 sequence (K9N7C7 3248-3553 limits assumed): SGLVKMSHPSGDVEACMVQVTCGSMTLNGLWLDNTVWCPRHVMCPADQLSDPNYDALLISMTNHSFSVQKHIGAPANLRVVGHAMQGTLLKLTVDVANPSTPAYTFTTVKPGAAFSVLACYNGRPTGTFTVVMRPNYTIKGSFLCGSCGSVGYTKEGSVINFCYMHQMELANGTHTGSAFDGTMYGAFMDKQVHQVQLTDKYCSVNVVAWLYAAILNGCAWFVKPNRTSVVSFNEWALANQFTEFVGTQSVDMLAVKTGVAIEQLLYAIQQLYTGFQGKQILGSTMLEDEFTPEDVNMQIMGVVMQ

[3] = molecular target: T3, SARS-CoV-2 MPro (main protease, 3CL protease, Nsp5) (Severe acute respiratory syndrome coronavirus 2, UniProt P0DTD1); assay: biochemical; design: fluorogenic NSP7 peptide substrate cleavage, concentration-response inhibition of MPro
T3 construct: gene rep

[4] = molecular target: T3, SARS-CoV-2 MPro (main protease, 3CL protease, Nsp5); design: fluorogenic NSP7 peptide substrate cleavage, concentration-response inhibition of MPro; conditions: read-out: IC50 [µM] (ACN); compound in acetonitrile; inhibitor

| SMILES | IC50 [3] [µM] | also measured |
| --- | --- | --- |
| O=Cc1ncc(Br)cc1OCc1ccc(Cl)c([N+](=O)[O-])c1 ['7021] | – | IC50 [1]: 8 µM; IC50 [2]: 50 µM |
| O=c1cc(CN2CC(CO)c3ccccc32)nc2ccccn12 (stereo not shown) [ZINC433294115] | 97 | – |
| Cc1noc(C)c1CCCNc1nc(-c2ccncc2)nc2ccccc12 [ZINC301553312] | 122 | – |
| CC1CN(c2ncnc3sc4ccccc4c23)CC(=O)N1C (stereo not shown) [ZINC336912805] | – | IC50 ([3]; read-out: IC50 [µM] (DMSO), compound in DMSO, inhibitor): 250 µM; IC50 [4]: 177 µM |
| COc1cc(C=O)c(OS(=O)(=O)CC2CCCCC2)cc1OC [ZINC271072260] | 115 | – |
| O=C(Cc1cccnc1)N(Cc1ccccn1)c1ccc(Cl)cc1 [ZINC346371112] | 214 | – |
| COC(=O)c1cc(C#N)c(=O)n(Cc2cccc(F)c2Cl)c1 [ZINC338540162] | 281 | – |
| CC1CN(C(=O)CCn2cc(Br)ccc2=O)Cc2ccccc2O1 (stereo not shown) [ZINC553840273] | 200 | – |
